# Patent US20210023065A1, “AMPHIPHILIC THIOL COMPOUNDS AND USES THEREOF” (THE REGENTS OF THE UNIVERSITY OF CALIFORNIA, priority 2018, published 2021)
# Key:
# Format in all cases: cell-based
# [1] = target: T1, flotillin-1 (Homo sapiens, UniProt O75955); test: Acyl resin-assisted capture detection of flotillin-1 palmitoylation in HeLa cells; details: 1.25 μmol/10^7 cells, relative to vehicle
# T1 construct: we detected the palmitoylation levels of eight known palmitoylated proteins after treatment with 1; endogenous in cells; host or cells: HeLa
# T1 sequence (O75955 1-427): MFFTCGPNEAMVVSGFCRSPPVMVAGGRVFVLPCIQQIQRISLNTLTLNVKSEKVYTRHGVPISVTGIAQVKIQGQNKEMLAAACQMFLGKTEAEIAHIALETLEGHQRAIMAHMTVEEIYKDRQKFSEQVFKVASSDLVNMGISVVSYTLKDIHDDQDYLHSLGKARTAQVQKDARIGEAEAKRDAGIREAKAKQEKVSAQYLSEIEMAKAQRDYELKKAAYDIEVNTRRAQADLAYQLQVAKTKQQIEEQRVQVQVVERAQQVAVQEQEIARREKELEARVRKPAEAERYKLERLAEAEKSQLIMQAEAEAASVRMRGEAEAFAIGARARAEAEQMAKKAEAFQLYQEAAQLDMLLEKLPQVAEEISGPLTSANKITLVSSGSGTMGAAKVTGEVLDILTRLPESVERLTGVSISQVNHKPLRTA
# Protocol: (§1) HeLa cells were grown to confluency in 10 cm plates. Stock solutions of compounds were prepared in DMSO as before and diluted to the final indicated concentration in 5.5 mL of OptiMEM media before adding to cells. Cells were incubated at 37° C. for 20 min and then media removed and 3 mL of HBSS added to each plate. Cells were detached using a cell scraper, pelleted by centrifugation at 1,000 rcf for 5 min and the pellet processed using a CAPTUREome S-Palmitoylated Protein Kit (Badrilla, UK) according to the manufacturer's protocol. Samples were resolved by electrophoresis using 4-20% SDS-polyacrylamide gels (Bio-Rad) under denaturing and reducing conditions. Proteins were then electrotransferred to a PVDF membrane (Bio-Rad). […]
# (§2) Assays were performed in 3 biological replicates. […] Western blots were analyzed using ImageJ^1. […]
# [2] = target: T2, calnexin (Homo sapiens, UniProt P27824); test: Acyl resin-assisted capture detection of calnexin palmitoylation in HeLa cells; details: 1.25 μmol/10^7 cells, relative to vehicle
# T2 construct: we detected the palmitoylation levels of eight known palmitoylated proteins after treatment with 1; endogenous in cells; host or cells: HeLa
# T2 sequence (P27824 21-592): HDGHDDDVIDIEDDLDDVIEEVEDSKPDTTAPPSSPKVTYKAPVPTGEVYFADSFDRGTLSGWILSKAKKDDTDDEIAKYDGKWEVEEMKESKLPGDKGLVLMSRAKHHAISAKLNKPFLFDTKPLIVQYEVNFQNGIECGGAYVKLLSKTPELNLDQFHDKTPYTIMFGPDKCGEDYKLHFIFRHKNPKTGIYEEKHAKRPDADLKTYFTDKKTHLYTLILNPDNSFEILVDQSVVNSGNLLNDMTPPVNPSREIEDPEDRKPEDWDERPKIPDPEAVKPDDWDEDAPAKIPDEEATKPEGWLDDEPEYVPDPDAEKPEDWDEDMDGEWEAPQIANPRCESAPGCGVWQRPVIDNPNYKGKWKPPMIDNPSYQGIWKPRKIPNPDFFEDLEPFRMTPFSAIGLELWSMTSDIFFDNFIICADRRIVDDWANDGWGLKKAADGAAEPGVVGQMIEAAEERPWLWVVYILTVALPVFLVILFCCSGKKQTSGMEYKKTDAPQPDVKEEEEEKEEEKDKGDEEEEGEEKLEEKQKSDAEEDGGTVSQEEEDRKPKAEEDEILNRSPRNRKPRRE
# Protocol: as §1, §2
# [3] = test system: ERK1/2 (pY204/pY187); test: Detection of ERK1/2 phosphorylation in HeLa cells (western blot); details: 1.25 μmol/10^7 cells, 20 min, then EGF 5 min
# Protocol: HeLa cells were grown to confluency in 6 cm plates and then serum starved overnight in OptiMEM. Stock solutions of compounds were prepared in DMSO as before and diluted to the final indicated concentration in 2 mL of OptiMEM media before adding to cells. Cells were incubated at 37° C. for 20 min and then stimulated with […] EGF (ThermoFisher) for 5 min. Media was then removed and cells washed once with HBSS. 1.5 mL of HBSS was then added to each plate. Cells were detached using a cell scraper, pelleted by centrifugation at 1,000 rcf for 5 min and the pellet processed using MPER™ Mammalian Protein Extraction Reagent (ThermoFisher) with the addition of Halt Protease Inhibitor Cocktail (ThermoFisher) and 1 mM sodium orthovanadate. Samples were resolved by electrophoresis using 4-20% SDS-polyacrylamide gels (Bio-Rad) under denaturing and reducing conditions. Proteins were then electrotransferred to a PVDF membrane (Bio-Rad). The membrane was blocked with 3% BSA and then subjected to immunoblot analysis using AKT/MAPK Signaling Pathway Antibody Cocktail (ab151279) (Abcam) and secondary goat anti-rabbit IgG-HRP (sc-2030) (Santa Cruz Biotechnology). […]
# Assays were performed in 3 biological replicates. Western blots were analyzed using ImageJl. […]
smiles,measurement,setting,value
"CCCCCCCCNC(=O)[C@@H](N)CS [compound 1, H2N-L-Cys-Oct]",reduction of palmitoylation level of flotillin-1,[1],19-40%
same,reduction of palmitoylation level of calnexin,[2],19-40%
same,ERK1/2 phosphorylation after EGF stimulation,[3],but not ERK1/2 phosphorylation
